Holding throughout (type): cell-based
Holding throughout (details): 24 hours of compound treatment, 50 nM and 500 nM

For one test, the target named is T1, WEE1 (Homo sapiens, UniProt P30291+Q96SW2).
T1 construct: effects of the compounds of the present disclosure on the expression of target proteins in cells; endogenous in cells; host or cells: human PBMCs (hPBMCs)
As to the kind of experiment: Western-blot assay, substrate protein degradation in hPBMCs: WEE1.

A further test has as its target T2, IKZF1 (Homo sapiens, UniProt Q13422+Q96SW2).
T2 construct: effects of the compounds of the present disclosure on the expression of target proteins in cells; endogenous in cells; host or cells: human PBMCs (hPBMCs)
Put plainly: Western-blot assay, substrate protein degradation in hPBMCs: IKZF1.

The next test addresses T3, IKZF2 (Homo sapiens, UniProt Q96SW2+Q9UKS7).
T3 construct: effects of the compounds of the present disclosure on the expression of target proteins in cells; endogenous in cells; host or cells: human PBMCs (hPBMCs)
As to the kind of experiment: Western-blot assay, substrate protein degradation in hPBMCs: IKZF2.

For the next test, the target named is T4, IKZF3 (Homo sapiens, UniProt Q96SW2+Q9UKT9).
T4 construct: effects of the compounds of the present disclosure on the expression of target proteins in cells; endogenous in cells; host or cells: human PBMCs (hPBMCs)
Put plainly: Western-blot assay, substrate protein degradation in hPBMCs: IKZF3.

Another test deals with T5, CK1α (Homo sapiens, UniProt P48729+Q96SW2).
T5 construct: effects of the compounds of the present disclosure on the expression of target proteins in cells; endogenous in cells; host or cells: human PBMCs (hPBMCs)
Put plainly: Western-blot assay, substrate protein degradation in hPBMCs: CK1α.

For another test, the target named is T6, GSPT1 (Homo sapiens, UniProt P15170+Q96SW2).
T6 construct: effects of the compounds of the present disclosure on the expression of target proteins in cells; endogenous in cells; host or cells: human PBMCs (hPBMCs)
As to the kind of experiment: Western-blot assay, substrate protein degradation in hPBMCs: GSPT1.

T4 sequence (Q9UKT9 whole entry): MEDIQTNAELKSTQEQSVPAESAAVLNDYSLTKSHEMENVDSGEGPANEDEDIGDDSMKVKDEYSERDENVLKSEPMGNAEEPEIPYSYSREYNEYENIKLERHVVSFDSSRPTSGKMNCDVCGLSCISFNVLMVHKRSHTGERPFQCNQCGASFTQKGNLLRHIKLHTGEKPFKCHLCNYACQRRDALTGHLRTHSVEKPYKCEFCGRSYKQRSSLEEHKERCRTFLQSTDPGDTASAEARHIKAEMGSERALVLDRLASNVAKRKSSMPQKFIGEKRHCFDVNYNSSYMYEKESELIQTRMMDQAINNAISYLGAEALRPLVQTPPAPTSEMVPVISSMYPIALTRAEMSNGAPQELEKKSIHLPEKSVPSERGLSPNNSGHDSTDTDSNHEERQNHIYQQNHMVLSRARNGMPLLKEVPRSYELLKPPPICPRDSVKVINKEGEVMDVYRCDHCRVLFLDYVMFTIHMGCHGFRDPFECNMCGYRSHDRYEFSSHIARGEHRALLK
T4 sequence (Q96SW2 whole entry): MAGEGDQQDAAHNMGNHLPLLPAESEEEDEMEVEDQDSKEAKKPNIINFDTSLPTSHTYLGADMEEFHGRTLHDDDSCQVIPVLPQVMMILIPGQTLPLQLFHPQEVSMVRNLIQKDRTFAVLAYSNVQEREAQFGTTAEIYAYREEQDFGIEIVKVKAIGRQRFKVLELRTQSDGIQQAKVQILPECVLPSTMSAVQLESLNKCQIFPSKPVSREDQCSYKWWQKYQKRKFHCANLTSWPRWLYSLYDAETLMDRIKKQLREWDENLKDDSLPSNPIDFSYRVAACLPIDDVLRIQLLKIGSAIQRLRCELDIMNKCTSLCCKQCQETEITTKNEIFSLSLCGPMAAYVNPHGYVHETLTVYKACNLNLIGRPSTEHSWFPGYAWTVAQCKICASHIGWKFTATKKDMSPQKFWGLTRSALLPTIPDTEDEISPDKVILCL
T4 sequence (Q16531 whole entry partner): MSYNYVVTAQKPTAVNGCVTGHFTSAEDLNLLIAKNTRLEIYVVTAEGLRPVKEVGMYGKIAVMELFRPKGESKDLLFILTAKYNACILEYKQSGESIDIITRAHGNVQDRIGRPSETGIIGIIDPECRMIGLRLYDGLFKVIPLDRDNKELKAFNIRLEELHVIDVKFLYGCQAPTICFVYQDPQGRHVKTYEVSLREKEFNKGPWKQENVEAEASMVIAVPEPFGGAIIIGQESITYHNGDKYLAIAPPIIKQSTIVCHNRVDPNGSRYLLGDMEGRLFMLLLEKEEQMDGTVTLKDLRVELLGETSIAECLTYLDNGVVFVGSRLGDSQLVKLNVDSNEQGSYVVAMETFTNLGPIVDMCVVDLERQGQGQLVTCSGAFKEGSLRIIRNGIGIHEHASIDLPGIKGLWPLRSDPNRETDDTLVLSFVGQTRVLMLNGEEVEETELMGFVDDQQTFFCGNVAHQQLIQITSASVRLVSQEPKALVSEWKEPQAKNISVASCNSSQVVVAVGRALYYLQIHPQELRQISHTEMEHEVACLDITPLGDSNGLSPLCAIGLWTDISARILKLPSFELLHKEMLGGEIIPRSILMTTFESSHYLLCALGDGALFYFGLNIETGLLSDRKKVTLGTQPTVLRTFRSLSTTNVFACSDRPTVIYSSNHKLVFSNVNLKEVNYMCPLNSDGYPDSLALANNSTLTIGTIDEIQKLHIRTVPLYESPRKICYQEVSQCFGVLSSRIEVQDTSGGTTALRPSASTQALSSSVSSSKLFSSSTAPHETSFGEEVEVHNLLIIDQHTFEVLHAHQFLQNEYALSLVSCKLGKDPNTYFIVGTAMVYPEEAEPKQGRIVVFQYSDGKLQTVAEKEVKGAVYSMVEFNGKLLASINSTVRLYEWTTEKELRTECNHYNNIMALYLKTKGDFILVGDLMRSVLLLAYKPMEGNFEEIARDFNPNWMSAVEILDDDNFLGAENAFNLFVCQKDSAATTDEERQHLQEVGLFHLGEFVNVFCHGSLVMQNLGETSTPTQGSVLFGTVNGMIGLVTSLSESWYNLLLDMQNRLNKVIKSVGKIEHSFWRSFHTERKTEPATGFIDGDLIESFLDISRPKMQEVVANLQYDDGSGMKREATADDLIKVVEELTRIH
T1 sequence (P30291 whole entry): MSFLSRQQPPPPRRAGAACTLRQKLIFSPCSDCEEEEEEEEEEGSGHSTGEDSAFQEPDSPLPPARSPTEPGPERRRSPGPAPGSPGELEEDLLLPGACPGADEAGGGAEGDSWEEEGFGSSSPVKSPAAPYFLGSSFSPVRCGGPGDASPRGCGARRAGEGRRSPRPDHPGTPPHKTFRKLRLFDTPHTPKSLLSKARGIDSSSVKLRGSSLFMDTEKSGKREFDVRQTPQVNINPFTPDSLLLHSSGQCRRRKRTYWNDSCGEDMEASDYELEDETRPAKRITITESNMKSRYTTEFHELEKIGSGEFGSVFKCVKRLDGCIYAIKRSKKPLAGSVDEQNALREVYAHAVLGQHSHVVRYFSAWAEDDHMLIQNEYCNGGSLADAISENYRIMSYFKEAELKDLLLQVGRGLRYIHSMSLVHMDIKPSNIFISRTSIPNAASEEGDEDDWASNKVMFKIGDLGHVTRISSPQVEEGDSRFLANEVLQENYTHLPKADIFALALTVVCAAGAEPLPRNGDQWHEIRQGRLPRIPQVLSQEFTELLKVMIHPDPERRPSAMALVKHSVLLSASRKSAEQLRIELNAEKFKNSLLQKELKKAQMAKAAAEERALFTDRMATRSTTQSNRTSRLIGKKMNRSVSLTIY
T1 sequence (Q96SW2 whole entry): as the sequence (Q96SW2 whole entry) above
T1 sequence (Q16531 whole entry partner): as the sequence (Q16531 whole entry partner) above
T2 sequence (Q13422 whole entry): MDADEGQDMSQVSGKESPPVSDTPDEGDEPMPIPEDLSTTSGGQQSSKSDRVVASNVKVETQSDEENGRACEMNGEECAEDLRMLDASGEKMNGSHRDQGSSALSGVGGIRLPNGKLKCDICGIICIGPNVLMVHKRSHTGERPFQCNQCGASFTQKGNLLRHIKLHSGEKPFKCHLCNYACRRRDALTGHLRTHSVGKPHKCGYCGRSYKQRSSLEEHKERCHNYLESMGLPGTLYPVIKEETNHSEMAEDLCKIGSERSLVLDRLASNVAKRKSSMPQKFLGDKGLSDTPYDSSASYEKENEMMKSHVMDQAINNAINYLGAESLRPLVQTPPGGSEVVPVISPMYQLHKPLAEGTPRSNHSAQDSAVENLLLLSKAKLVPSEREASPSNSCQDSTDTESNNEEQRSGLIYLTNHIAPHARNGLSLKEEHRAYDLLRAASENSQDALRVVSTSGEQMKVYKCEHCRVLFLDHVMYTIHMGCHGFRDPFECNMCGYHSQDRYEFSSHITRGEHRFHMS
T2 sequence (Q96SW2 whole entry): as the sequence (Q96SW2 whole entry) above
T2 sequence (Q16531 whole entry partner): as the sequence (Q16531 whole entry partner) above
T3 sequence (Q9UKS7 whole entry): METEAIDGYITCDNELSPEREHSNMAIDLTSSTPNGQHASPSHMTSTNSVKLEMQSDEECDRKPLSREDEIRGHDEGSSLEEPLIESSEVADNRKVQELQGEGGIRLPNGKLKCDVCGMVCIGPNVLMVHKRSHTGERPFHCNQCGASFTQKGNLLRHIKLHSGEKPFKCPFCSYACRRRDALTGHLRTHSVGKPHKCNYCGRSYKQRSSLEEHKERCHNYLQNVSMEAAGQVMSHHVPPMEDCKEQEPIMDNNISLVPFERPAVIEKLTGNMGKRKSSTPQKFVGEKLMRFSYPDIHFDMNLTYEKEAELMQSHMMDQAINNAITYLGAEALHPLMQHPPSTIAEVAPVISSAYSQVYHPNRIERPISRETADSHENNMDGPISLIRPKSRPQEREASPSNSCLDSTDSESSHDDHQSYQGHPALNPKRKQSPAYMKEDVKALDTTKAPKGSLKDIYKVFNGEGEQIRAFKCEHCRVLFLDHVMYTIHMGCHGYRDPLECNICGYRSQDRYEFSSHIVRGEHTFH
T3 sequence (Q96SW2 whole entry): as the sequence (Q96SW2 whole entry) above
T3 sequence (Q16531 whole entry partner): as the sequence (Q16531 whole entry partner) above
T5 sequence (P48729 whole entry): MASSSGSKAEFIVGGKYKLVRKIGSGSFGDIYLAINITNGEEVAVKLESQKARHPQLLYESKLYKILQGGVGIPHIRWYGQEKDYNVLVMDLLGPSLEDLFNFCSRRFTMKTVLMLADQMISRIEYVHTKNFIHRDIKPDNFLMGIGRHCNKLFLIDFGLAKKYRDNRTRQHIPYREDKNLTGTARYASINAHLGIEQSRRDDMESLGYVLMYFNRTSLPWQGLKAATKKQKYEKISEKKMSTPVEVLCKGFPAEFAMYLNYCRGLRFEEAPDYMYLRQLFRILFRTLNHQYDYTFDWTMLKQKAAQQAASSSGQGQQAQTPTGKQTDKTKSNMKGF
T5 sequence (Q96SW2 whole entry): as the sequence (Q96SW2 whole entry) above
T5 sequence (Q16531 whole entry partner): as the sequence (Q16531 whole entry partner) above

As to `CC1CN(C(c2ccccc2)c2ccccc2)CC(C)N1Cc1ccc2c(c1)CN(N1CCC(=O)NC1=O)C2=O` (stereo not drawn) [GT-07433, 1-(5-((4-benzhydryl-2,6-dimethylpiperazin-1-yl)methyl)-1-oxoisoindolin-2-yl)dihydropyrimidine-2,4(1H,3H)-dione], at WEE1, the “substrate protein remaining % WEE1” value was “B (80%< substrate protein remaining %≤ 100%)”. For the same molecule, the “substrate protein remaining % IKZF1” value at IKZF1 was “B (80%< substrate protein remaining %≤ 100%)”. Besides, the “substrate protein remaining % IKZF2” value on IKZF2 is “A (0% ≤ substrate protein remaining % ≤ 80%)”. In addition, on IKZF3, the “substrate protein remaining % IKZF3” value is listed as “B (80%< substrate protein remaining %≤ 100%)”. Further, on CK1α, the “substrate protein remaining % CK1α” value is reported as “A (0% ≤ substrate protein remaining % ≤ 80%)”. In addition, the “substrate protein remaining % GSPT1” value on GSPT1 was “B (80%< substrate protein remaining %≤ 100%)”.

For the molecule `O=C1CCN(N2C(=O)c3ccc(CN4CC5CC(C4)N5c4cccc(Cl)c4Cl)cc3C2=O)C(=O)N1` [GT-07434, 5-((6-(2,3-dichlorophenyl)-3,6-diazabicyclo[3.1.1]heptan-3-yl)methyl)-2-(2,4-dioxotetrahydropyrimidin-1(2H)-yl)isoindoline-1,3-dione], the “substrate protein remaining % WEE1” value at WEE1 is “B (80%< substrate protein remaining %≤ 100%)”. Further, the “substrate protein remaining % IKZF1” value on IKZF1 is “B (80%< substrate protein remaining %≤ 100%)”. Besides, the “substrate protein remaining % IKZF2” value at IKZF2 is reported as “B (80%< substrate protein remaining %≤ 100%)”. Further, the “substrate protein remaining % IKZF3” value at IKZF3 is on record as “B (80%< substrate protein remaining %≤ 100%)”. For the same molecule, the “substrate protein remaining % CK1α” value on CK1α is on record as “A (0% ≤ substrate protein remaining % ≤ 80%)”. Further, the “substrate protein remaining % GSPT1” value at GSPT1 was “B (80%< substrate protein remaining %≤ 100%)”.

As to `O=C1CCN(N2C(=O)c3ccc(CN4C[C@H]5C[C@@H]4CN5c4cccc(Cl)c4Cl)cc3C2=O)C(=O)N1` [GT-07435, 5-(((1R,4R)-5-(2,3-dichlorophenyl)-2,5-diazabicyclo[2.2.1]heptan-2-yl)methyl)-2-(2,4-dioxotetrahydropyrimidin-1(2H)-yl)isoindoline-1,3-dione], the “substrate protein remaining % WEE1” value at WEE1 is given as “B (80%< substrate protein remaining %≤ 100%)”. For the same molecule, the “substrate protein remaining % IKZF1” value on IKZF1 was “B (80%< substrate protein remaining %≤ 100%)”. The “substrate protein remaining % IKZF2” value on IKZF2 is on record as “B (80%< substrate protein remaining %≤ 100%)”. Further, at IKZF3, the “substrate protein remaining % IKZF3” value is given as “B (80%< substrate protein remaining %≤ 100%)”. Further, the “substrate protein remaining % CK1α” value on CK1α was “A (0% ≤ substrate protein remaining % ≤ 80%)”. Further, on GSPT1, the “substrate protein remaining % GSPT1” value is reported as “B (80%< substrate protein remaining %≤ 100%)”.

In the case of `O=C1CCN(N2C(=O)c3ccc(CN4CC5CCC4CN5c4cccc(Cl)c4Cl)cc3C2=O)C(=O)N1` (stereo not drawn) [GT-07436, 5-((5-(2,3-dichlorophenyl)-2,5-diazabicyclo[2.2.2]octan-2-yl)methyl)-2-(2,4-dioxotetrahydropyrimidin-1(2H)-yl)isoindoline-1,3-dione], the “substrate protein remaining % WEE1” value at WEE1 is listed as “B (80%< substrate protein remaining %≤ 100%)”. On IKZF1, the “substrate protein remaining % IKZF1” value is reported as “B (80%< substrate protein remaining %≤ 100%)”. The “substrate protein remaining % IKZF2” value on IKZF2 was “A (0% ≤ substrate protein remaining % ≤ 80%)”. The “substrate protein remaining % IKZF3” value at IKZF3 was “B (80%< substrate protein remaining %≤ 100%)”. On CK1α, the “substrate protein remaining % CK1α” value is on record as “A (0% ≤ substrate protein remaining % ≤ 80%)”. Besides, at GSPT1, the “substrate protein remaining % GSPT1” value is listed as “B (80%< substrate protein remaining %≤ 100%)”.

Consider `O=C1CCN(N2C(=O)c3ccc(CN4CC5CCC(C4)N5c4cccc(Cl)c4Cl)cc3C2=O)C(=O)N1` [GT-07437, 5-((8-(2,3-dichlorophenyl)-3,8-diazabicyclo[3.2.1]octan-3-yl)methyl)-2-(2,4-dioxotetrahydropyrimidin-1(2H)-yl)isoindoline-1,3-dione], for which the “substrate protein remaining % WEE1” value at WEE1 is reported as “A (0% ≤ substrate protein remaining % ≤ 80%)”. Also, the “substrate protein remaining % IKZF1” value on IKZF1 was “B (80%< substrate protein remaining %≤ 100%)”. Moreover, at IKZF2, the “substrate protein remaining % IKZF2” value is reported as “B (80%< substrate protein remaining %≤ 100%)”. The “substrate protein remaining % IKZF3” value at IKZF3 is on record as “B (80%< substrate protein remaining %≤ 100%)”. Further, the “substrate protein remaining % CK1α” value at CK1α was “A (0% ≤ substrate protein remaining % ≤ 80%)”. Also, at GSPT1, the “substrate protein remaining % GSPT1” value is recorded as “A (0% ≤ substrate protein remaining % ≤ 80%)”.

On to `O=C1CCN(N2C(=O)c3ccc(CN4C5CCC4CN(c4cccc(Cl)c4Cl)C5)cc3C2=O)C(=O)N1` [GT-07438, 5-((3-(2,3-dichlorophenyl)-3,8-diazabicyclo[3.2.1]octan-8-yl)methyl)-2-(2,4-dioxotetrahydropyrimidin-1(2H)-yl)isoindoline-1,3-dione], for which the “substrate protein remaining % WEE1” value at WEE1 is reported as “A (0% ≤ substrate protein remaining % ≤ 80%)”. In addition, the “substrate protein remaining % IKZF1” value on IKZF1 is reported as “B (80%< substrate protein remaining %≤ 100%)”. On IKZF2, the “substrate protein remaining % IKZF2” value was “B (80%< substrate protein remaining %≤ 100%)”. Also, on IKZF3, the “substrate protein remaining % IKZF3” value is reported as “B (80%< substrate protein remaining %≤ 100%)”. Further, at CK1α, the “substrate protein remaining % CK1α” value is “A (0% ≤ substrate protein remaining % ≤ 80%)”. At GSPT1, the “substrate protein remaining % GSPT1” value is reported as “A (0% ≤ substrate protein remaining % ≤ 80%)”.

Turning to `O=C1CCN(N2C(=O)c3ccc(CN4CCCN(c5cccc(Cl)c5Cl)CC4)cc3C2=O)C(=O)N1` [GT-07439, 5-((4-(2,3-dichlorophenyl)-1,4-diazepan-1-yl)methyl)-2-(2,4-dioxotetrahydropyrimidin-1(2H)-yl)isoindoline-1,3-dione], the “substrate protein remaining % WEE1” value on WEE1 was “B (80%< substrate protein remaining %≤ 100%)”. Moreover, the “substrate protein remaining % IKZF1” value at IKZF1 is recorded as “B (80%< substrate protein remaining %≤ 100%)”. Also, the “substrate protein remaining % IKZF2” value on IKZF2 is recorded as “B (80%< substrate protein remaining %≤ 100%)”. For the same molecule, the “substrate protein remaining % IKZF3” value at IKZF3 was “B (80%< substrate protein remaining %≤ 100%)”. Also, the “substrate protein remaining % CK1α” value at CK1α was “A (0% ≤ substrate protein remaining % ≤ 80%)”. In addition, the “substrate protein remaining % GSPT1” value at GSPT1 was “A (0% ≤ substrate protein remaining % ≤ 80%)”.

With `O=C1CCN(N2C(=O)c3ccc(CN4CC=C(c5ccnc(Cl)c5Cl)CC4)cc3C2=O)C(=O)N1` [GT-07440, 5-((2',3'-dichloro-3,6-dihydro-[4,4'-bipyridin]-1(2H)-yl)methyl)-2-(2,4-dioxotetrahydropyrimidin-1(2H)-yl)isoindoline-1,3-dione], the “substrate protein remaining % WEE1” value at WEE1 is “A (0% ≤ substrate protein remaining % ≤ 80%)”. At IKZF1, the “substrate protein remaining % IKZF1” value was “B (80%< substrate protein remaining %≤ 100%)”. Also, the “substrate protein remaining % IKZF2” value on IKZF2 is reported as “B (80%< substrate protein remaining %≤ 100%)”. Besides, the “substrate protein remaining % IKZF3” value on IKZF3 is reported as “B (80%< substrate protein remaining %≤ 100%)”. Moreover, the “substrate protein remaining % CK1α” value at CK1α was “A (0% ≤ substrate protein remaining % ≤ 80%)”. Also, the “substrate protein remaining % GSPT1” value on GSPT1 is recorded as “A (0% ≤ substrate protein remaining % ≤ 80%)”.
